{
  "source": "ChEMBL document CHEMBL6177972",
  "about": "(J Nat Prod, 2025)",
  "format_in_all_cases": "functional, cell-based",
  "key": {"[1]": {"assay": "Anticancer activity against human MM649 cells assessed as cell growth inhibition incubated for 4 days by MTT assay", "conditions": "MM649, 96 h"}, "[2]": {"tested_on": "K562", "assay": "Anticancer activity against human K562 cells assessed as cell growth inhibition incubated for 4 days by MTT assay", "conditions": "K562, 96 h"}, "[3]": {"tested_on": "HeLa", "assay": "Anticancer activity against human HeLa cells assessed as cell growth inhibition incubated for 4 days by MTT assay", "conditions": "96 h"}},
  "data": [
    {"smiles": "CCCCCCCCCCCCC[C@H]1CC(=O)C[C@@]2(C[C@@H]3OC(=O)C=C[C@@H]3O2)O1", "values": [
      {"measurement": "IC50", "setting": "[1]", "value": 3.1, "unit": "µM"},
      {"measurement": "IC50", "setting": "[2]", "value": 11.9, "unit": "µM"},
      {"measurement": "IC50", "setting": "[3]", "value": 3.9, "unit": "µM"}
    ]},
    {"smiles": "O=C1C=C[C@@H]2O[C@]3(C[C@@H](O)C[C@H](C[C@@H](O)CCCCCCCCc4ccc5c(c4)OCO5)O3)C[C@@H]2O1", "values": [
      {"measurement": "IC50", "setting": "[1]", "value": 14.9, "unit": "µM"},
      {"measurement": "IC50", "setting": "[2]", "value": 25.8, "unit": "µM"},
      {"measurement": "IC50", "setting": "[3]", "value": 18.1, "unit": "µM"}
    ]},
    {"smiles": "CC(=O)O[C@H]1C[C@H](C[C@@H](O)CCCCCCCCc2ccc3c(c2)OCO3)O[C@@]2(C1)C[C@@H]1OC(=O)C=C[C@@H]1O2", "values": [
      {"measurement": "IC50", "setting": "[1]", "value": 24.5, "unit": "µM"},
      {"measurement": "IC50", "setting": "[2]", "value": 39.6, "unit": "µM"},
      {"measurement": "IC50", "setting": "[3]", "value": 27.1, "unit": "µM"}
    ]},
    {"smiles": "O=C1C[C@H](CCCCCCCCc2ccc3c(c2)OCO3)O[C@@]2(C1)C[C@@H]1OC(=O)C=C[C@@H]1O2", "values": [
      {"measurement": "IC50", "setting": "[1]", "value": 5.9, "unit": "µM"},
      {"measurement": "IC50", "setting": "[2]", "value": 16.6, "unit": "µM"},
      {"measurement": "IC50", "setting": "[3]", "value": 5.9, "unit": "µM"}
    ]},
    {"smiles": "CC(=O)O[C@H]1C[C@H](CCCCCCCCc2ccc3c(c2)OCO3)O[C@@]2(C1)C[C@@H]1OC(=O)C=C[C@@H]1O2", "values": [
      {"measurement": "IC50", "setting": "[1]", "value": 3.9, "unit": "µM"},
      {"measurement": "IC50", "setting": "[2]", "value": 13.5, "unit": "µM"},
      {"measurement": "IC50", "setting": "[3]", "value": 4.5, "unit": "µM"}
    ]},
    {"smiles": "CCCCCCCCCCCCC[C@H]1C[C@H](OC(C)=O)C[C@@]2(C[C@@H]3OC(=O)C=C[C@@H]3O2)O1", "values": [
      {"measurement": "IC50", "setting": "[1]", "value": 1.9, "unit": "µM"},
      {"measurement": "IC50", "setting": "[2]", "value": 10.5, "unit": "µM"},
      {"measurement": "IC50", "setting": "[3]", "value": 2.3, "unit": "µM"}
    ]},
    {"smiles": "CCCCCCCCCCCCC[C@H]1C[C@H](O)C[C@@]2(C[C@@H]3OC(=O)C=C[C@@H]3O2)O1", "values": [
      {"measurement": "IC50", "setting": "[1]", "value": 2.7, "unit": "µM"},
      {"measurement": "IC50", "setting": "[2]", "value": 15.6, "unit": "µM"},
      {"measurement": "IC50", "setting": "[3]", "value": 4.2, "unit": "µM"}
    ]},
    {"smiles": "CCCCCCCCCCCCC[C@H](O)C[C@H]1C[C@H](O)C[C@@]2(C[C@@H]3OC(=O)C=C[C@@H]3O2)O1", "values": [
      {"measurement": "IC50", "setting": "[1]", "value": 3.3, "unit": "µM"},
      {"measurement": "IC50", "setting": "[2]", "value": 20.3, "unit": "µM"},
      {"measurement": "IC50", "setting": "[3]", "value": 5.1, "unit": "µM"}
    ]},
    {"smiles": "O=C1C=C[C@H](O)[C@H](CCCCCCCCc2ccc3c(c2)OCO3)O1", "values": [
      {"measurement": "IC50", "setting": "[1]", "value": 7.6, "unit": "µM"},
      {"measurement": "IC50", "setting": "[2]", "value": 13.6, "unit": "µM"},
      {"measurement": "IC50", "setting": "[3]", "value": 5.6, "unit": "µM"}
    ]},
    {"smiles": "COc1cccc2c1C(=O)c1c(O)c3c(c(O)c1C2=O)C[C@@](O)(C(=O)CO)C[C@@H]3O[C@H]1C[C@H](N)[C@H](O)[C@H](C)O1", "note": "[DOXORUBICIN]", "values": [
      {"measurement": "IC50", "setting": "[1]", "value": 0.05, "unit": "µM"},
      {"measurement": "IC50", "setting": "[2]", "value": 0.12, "unit": "µM"}
    ]},
    {"smiles": "O=C1C=C[C@@H]2O[C@]3(C[C@@H](O)C[C@H](CCCCCCCCc4ccc5c(c4)OCO5)O3)C[C@@H]2O1", "values": [
      {"measurement": "IC50", "setting": "[1]", "value": 10.8, "unit": "µM"},
      {"measurement": "IC50", "setting": "[2]", "value": 25.1, "unit": "µM"},
      {"measurement": "IC50", "setting": "[3]", "value": 13.6, "unit": "µM"}
    ]}
  ]
}
